SMILES strings stand for the structures.

For 79 molecules, RP-LC retention time results are on record in the METLIN SMRT retention time set (Domingo-Almenara et al. 2019).

The data set in a line: gradient 5% acetonitrile 3 min, to 50% in 2 min, to 85% in 15 min, held 3 min, 100 µL/min. The note with it: column: Zorbax Extend-C18 2.1 x 50 mm; eluents: water / acetonitrile, 0.1% formic acid. An outline of the steps: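 Over 3 months, pure standards in mixtures of ~100 molecules were run by HPLC coupled to a quadrupole time-of-flight mass spectrometer in positive and negative ionization mode. The column was a Zorbax Extend-C18 (2.1 × 50 mm, 1.8 μm) at 100 μL/min, eluted with water and acetonitrile each holding 0.1% formic acid, with 40 μL dead and 900 μL dwell volumes. Retention time was determined from adduct peaks chosen by software and checked manually.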
In turn, `Cc1ccc(CNC(=O)CN2C(=O)CCCc3cc(S(=O)(=O)N4CCC(C)CC4)ccc32)cc1` returned an RP-LC retention time of 961 s.
As for `Cc1cccc(-n2ncc(C(N)=O)c2-n2cccc2)c1`, the figure is 775 s.
Turning to `COc1ccc(-c2csc(NC(=O)c3ccc(Br)s3)n2)cc1OC`, the RP-LC retention time was 990 s.
Regarding `CCCc1cc(C2CCCN2C(=O)NCc2cccc(OC)c2)no1` (centres undefined), the RP-LC retention time came out at 856 s.
As for `Cc1nn(CC(=O)NCCN2CCCCC2C)c(=O)c2nc(-c3ccccc3)sc12` (centres undefined), the RP-LC retention time is 645 s.
For `CCOc1ccc(-c2noc(Cn3nc(-c4ccccc4)ccc3=O)n2)cc1`, the RP-LC retention time stood at 1070 s.
The value for `Cc1ccc(C)c(Sc2ccc(N3CCC(C(=O)NCC(C)c4ccccc4)CC3)nn2)c1` (centres undefined) was 938 s.
The value for `CCc1cc(C(=O)Nc2cc(C)ccc2C)nc2ccnn12` was 1140 s.
The value for `O=C(NCC1CCCO1)C1CCN(c2ncccc2-c2nc(-c3ccccc3)no2)CC1` (centres undefined) was 870 s; that for `CCc1nccn1Cc1nc(-c2ccccc2Cl)no1` was 640 s.
`COc1ccccc1-c1nc(-c2ccc3c(c2)ncn3CCN2CCOCC2)no1` showed an RP-LC retention time of 625 s.
For `O=C(Cn1nc2nc(Nc3ccc(F)cc3)ccn2c1=O)Nc1ccc(F)cc1`, the RP-LC retention time worked out at 751 s.
`COc1ccc(CCNC(=O)CN2C(=O)NC3(CCC(C)CC3)C2=O)cc1OC` (centres undefined) displayed an RP-LC retention time of 740 s.
As for `CCc1noc([C@@H]2CC(F)(F)CN2C(=O)Cn2cc(C)cn2)n1`, the figure is 718 s; as for `CCCn1cc(CCNS(=O)(=O)c2ccc(C)cc2)c2cccnc21`, 841 s.
The value for `COCC(=O)N(C1CCOCC1)C1CCN(S(=O)(=O)c2ccc(F)c(F)c2)CC1` was 788 s; that for `O=C(C1=CN(c2cc(F)cc(F)c2)c2cc(Cl)ccc2S1(=O)=O)N1CCCC1` was 861 s; that for `COCCN1C(=O)CCc2cc(NS(=O)(=O)c3ccc(F)cc3)ccc21` was 759 s.
On to `CC1CCN(S(=O)(=O)c2ccc(-c3nnc(C(=O)N4CCC5(CC4)OCCO5)o3)cc2)CC1`, for which the RP-LC retention time was found to be 952 s.
`O=C(c1cc(-c2ccccc2Cl)nc2ccccc12)N1CCN(c2ccccn2)CC1` had an RP-LC retention time of 676 s.
The value for `Cc1cc(C)cc(Nc2nc(C)cc(=O)n2CC(=O)Nc2ccc(Br)cc2)c1` was 966 s; that for `Cc1ccc(NC(=O)CC(C)S(=O)(=O)c2ccc3c(c2)CCN3C(=O)C2CC2)cc1N(C)C` (centres undefined) was 983 s.
As for `COc1ccc(Cl)c2c(=O)c3c([nH]c12)CCN(CC(=O)NCc1ccccc1F)C3`, the figure is 625 s; as for `O=C(Nc1ccc(F)cc1F)C1CCCN(C(=O)Cc2cccc3ccccc23)C1` (centres undefined), 958 s; as for `CC1(C(=O)NCc2ccc(F)cc2)Cn2cnc(C(=O)NC3CC3)c2C(=O)N1C1CC1` (centres undefined), 670 s.
For the molecule `Cc1cccc(Sc2nccnc2N2CCC(C(=O)N3CCCCCC3)CC2)c1`, the RP-LC retention time was determined as 1130 s.
The value for `Cc1ccc(-c2noc(Cn3nc(-c4ccc5c(c4)OCO5)ccc3=O)n2)cc1C` was 1060 s; that for `O=C(Cn1cnc2c(nc3n2CCCCC3)c1=O)NCc1ccco1` was 618 s; that for `Cc1ccc(C)c(N2CCN(C(=O)Cn3ccc4ccc(N5CCOCC5)nc43)CC2)c1` was 1110 s.
Consider `CCCN1CCN(c2cc(C(=O)O)c3cc(NC(=O)c4cccc(Cl)c4)ccc3n2)CC1`, for which the RP-LC retention time worked out at 654 s.
The value for `Cc1ccc(S(=O)(=O)NCC(c2cccnc2)c2cn(C)c3ccccc23)cc1C` (centres undefined) was 790 s; that for `O=C1NCCCn2cc(S(=O)(=O)N3CCCCCC3)cc21` was 661 s; that for `Cc1ccsc1C(=O)N1CCC2(CC1)CC(N1CCOCC1)CCO2` (centres undefined) was 577 s.
The value for `Cc1nnc2c(NC(=O)c3ccncc3)cccn12` was 575 s; that for `Cc1nn(C)c2nc(OC(C)C(=O)NCc3ccccc3Cl)cc(C(F)(F)F)c12` (centres undefined) was 1020 s.
As for `Cc1cccc(N2CCN(c3ccc4cc(S(=O)(=O)N5CCC(C)CC5)ccc4n3)CC2C)c1` (centres undefined), the figure is 1200 s; as for `O=C(NCCCN1CCN(c2ccccc2)CC1)C1CCCN(c2nc3cccnc3s2)C1` (centres undefined), 643 s.
In turn, `Cn1c(N2CCCC(C(=O)NCc3cccs3)C2)cc(=O)n(C)c1=O` (centres undefined) gave an RP-LC retention time of 650 s.
The molecule `CCc1nc2cc3c(cc2n1CC(=O)Nc1cccc(OC)c1)OCCO3` displayed an RP-LC retention time of 660 s.
`CCOCCCNC(=O)C1CCN(c2cc(Oc3cccc(C)c3C)ncn2)CC1` came in with an RP-LC retention time of 819 s.
As for `O=C(O)c1ccc(Nc2c(-c3cccc(Cl)c3)nc3cnccn23)cc1`, the figure is 714 s; as for `COCC(C)(O)CNC(=O)c1ccc2nsnc2c1` (centres undefined), 606 s.
In the case of `CCn1c(C(=O)NCCc2ccc(S(N)(=O)=O)cc2)cc2sc(Cl)cc21`, the RP-LC retention time came to 860 s.
The value for `O=C(c1cnn2cccnc12)N1CCCC1c1ccccc1Cl` (centres undefined) was 763 s; that for `Cc1noc(C)c1CCNC(=O)c1ccc2nc(Cc3ccccc3)oc2c1` was 830 s; that for `COc1ccc(CNC(=O)[C@@]23CCCC[C@H]2N(C)C(=O)CC3)c(OC)c1` was 663 s.
`CCCNC(=O)c1cc(-c2ccccc2)cn1CC` showed an RP-LC retention time of 977 s.
The molecule `Cc1cc(C)c(-c2noc(C)n2)c(NC(=O)c2cccc(Br)c2)n1` displayed an RP-LC retention time of 820 s.
As for `CCc1noc(NC(C)=O)c1-c1ccc(C)c(S(=O)(=O)Nc2ccc(C)cc2C)c1`, the figure is 897 s; as for `CC1=C(c2ccc(C)c(C)c2)S(=O)(=O)N=C1N1CCCN(C(=O)NC(C)C)CC1`, 787 s; as for `CCc1cccc(C)c1Nc1c(-c2ccc(OC)c(OC)c2)nc2cnccn12`, 805 s.
As for `COc1cccc(C(=O)NCCc2c[nH]c3ccc(F)cc23)c1`, the figure is 820 s; as for `O=C(c1ccc2c(c1)CCC(=O)N2Cc1ccccc1)N1CCN(c2ccc(F)cc2)CC1`, 923 s; as for `NC(=O)c1ccccc1OCC(=O)Nc1ccc(Cl)c(Cl)c1`, 895 s.
Turning to `Cc1ccc(OCC(=O)Nc2cncc(-c3nc4ccccc4o3)c2)cc1`, the RP-LC retention time was determined as 1010 s.
`COc1nccnc1NC1CCN(C(=O)c2ccnn2C)CC1` showed an RP-LC retention time of 608 s.
`COc1ccc(-c2cc(NS(=O)(=O)c3cnc[nH]3)n(C3CCS(=O)(=O)C3)n2)cc1` (centres undefined) gave an RP-LC retention time of 649 s.
As for `COc1ccc(NC(=O)Cc2c(C)nn(-c3nc(-c4ccc(F)cc4)cs3)c2C)c(OC)c1`, the figure is 1160 s.
Consider `O=C(NCC1CCCO1)c1cccn1Cc1noc(-c2ccccc2)n1` (centres undefined), for which the RP-LC retention time came to 855 s.
As for `CCN1C(=O)CN(C(=O)C2CCCC2)CC12CCOCC2`, the figure is 651 s; as for `CC1Oc2ccc(S(=O)(=O)N3CCC(C(=O)NCc4ccc5c(c4)OCO5)CC3)cc2NC1=O` (centres undefined), 755 s.
As for `CC(C)n1cnc2cc(CNC(=O)c3ccccn3)ccc21`, the figure is 590 s; as for `COc1ccc(OC)c(CNC(=O)C2CCCN(c3nccnc3Oc3ccccc3)C2)c1` (centres undefined), 957 s; as for `Cc1cccc(NC(=O)N2CCCC(C)(C(=O)NCc3ccc(F)cc3)C2)c1` (centres undefined), 924 s.
The molecule `O=C(CSc1ccc(N2CCCC(C(=O)NC3CC3)C2)nn1)Nc1ccc2c(c1)CCC2` (centres undefined) returned an RP-LC retention time of 691 s.
`CC1CCCN(S(=O)(=O)c2ccc(-n3cnc(C(=O)N4CCCCC4)c3)nc2)C1` (centres undefined) yielded an RP-LC retention time of 881 s.
`O=C(CN1C(=O)CCS(=O)(=O)c2ccccc21)NCCc1ccccc1` yielded an RP-LC retention time of 745 s.
For `CC(C)Cn1c(=O)c(-c2ccc(C(=O)N3CCC4(CC3)OCCO4)cc2)nc2ccccc21`, the RP-LC retention time is 987 s.
The value for `CCc1cccc(N2C=C(C(=O)N3CCOCC3)S(=O)(=O)c3ccc(F)cc32)c1` was 858 s.
As for `Cc1ccc(N2CCN(C(=O)c3cn4c(n3)CCCC4)CC2)cc1`, the figure is 626 s; as for `CN1C(=O)c2ccccc2C(C(=O)NCCCN2CCc3ccccc3C2)C1c1cccs1` (centres undefined), 647 s.
The value for `COc1ccc(Cl)cc1C(=O)N1CCN(c2cc(C)nc(N3CCCC3)n2)CC1` was 665 s; that for `COc1cccc(CNC(=O)Cn2c(=O)c3cc(C)nn3c3ncccc32)c1` was 698 s.
The molecule `COc1ccccc1NC(=O)N1CCc2nc(-c3ccc(Cl)cc3)ncc2C1` gave an RP-LC retention time of 948 s.
The value for `COc1ccc(C(=O)NC2CCN(c3ccc(F)cc3)C2=O)cc1F` (centres undefined) was 806 s; that for `O=C(Nc1nnc(-c2cc(Cl)sc2Cl)o1)c1cccc(C(F)(F)F)c1` was 1010 s; that for `CC(C)NC(=O)c1ccc2c(c1)Sc1ncccc1C(=O)N2C(C)C` was 736 s.
`COc1ccc(CN(C)Cc2cc(=O)n3cc(C)ccc3n2)cc1`: the RP-LC retention time is 598 s.
As for `Cc1nc(-c2ccc(OC3CCN(C(=O)c4nn(C)c5ccccc45)C3)cc2)no1` (centres undefined), the figure is 942 s.
